# How the values were obtained:
# Assay in all cases: relative viability (nuclei count vs DMSO), 5 days (fraction); higher = more cells survive
# [1] = compound: CS(=O)(=O)N1CCN(Cc2cc3nc(-c4cccc5[nH]ncc45)nc(N4CCOCC4)c3s2)CC1 [Pictilisib] + CS(=O)(=O)CCNCc1ccc(-c2ccc3ncnc(Nc4ccc(OCc5cccc(F)c5)c(Cl)c4)c3c2)o1 [Lapatinib] (partner 2 µM)
# Method in brief: (§1)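 Dosing by pin tool came one day after lung cancer cell lines were seeded in 1536-well plates, using either one drug or a fixed anchor-drug dose plus five library-drug doses (not always all listed) in √10 steps. After 5 days, nuclei were counted on 4× images. Relative viability is treated-well nuclei count divided by vehicle-well nuclei count, and values are medians of duplicate plates.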
# [2] = compound: CS(=O)(=O)N1CCN(Cc2cc3nc(-c4cccc5[nH]ncc45)nc(N4CCOCC4)c3s2)CC1 [Pictilisib] + C[C@]1(O)C[C@@H](c2nc(-c3ccc4ccc(-c5ccccc5)nc4c3)c3c(N)nccn32)C1 [Linsitinib] (partner 1 µM)
# Method in brief: as §1
# [3] = compound: NC1(c2ccc(-c3nc4ccn5c(=O)[nH]nc5c4cc3-c3ccccc3)cc2)CCC1 [MK-2206] + CC(=O)c1c(C)c2cnc(Nc3ccc(N4CCNCC4)cn3)nc2n(C2CCCC2)c1=O [Palbociclib] (partner 0.5 µM)
# Method in brief: as §1
# [4] = compound: CS(=O)(=O)N1CCN(Cc2cc3nc(-c4cccc5[nH]ncc45)nc(N4CCOCC4)c3s2)CC1 [Pictilisib] + CC1(C)CCC(c2ccc(Cl)cc2)=C(CN2CCN(c3ccc(C(=O)NS(=O)(=O)c4ccc(N[C@H](CCN5CCOCC5)CSc5ccccc5)c(S(=O)(=O)C(F)(F)F)c4)cc3)CC2)C1 [Navitoclax] (partner 0.5 µM)
# Method in brief: as §1
# [5] = compound: NC1(c2ccc(-c3nc4ccn5c(=O)[nH]nc5c4cc3-c3ccccc3)cc2)CCC1 [MK-2206] + NC(=O)Nc1cc(-c2cccc(F)c2)sc1C(=O)N[C@H]1CCCNC1 [AZD7762] (partner 0.2 µM)
# Method in brief: as §1
Cell Line,relative viability ([1]; first compound 0.02 µM),relative viability ([1]; first compound 0.06325 µM),relative viability ([1]; first compound 0.6325 µM),relative viability ([1]; first compound 2 µM),relative viability ([2]; first compound 0.02 µM),relative viability ([2]; first compound 0.06325 µM),relative viability ([2]; first compound 0.6325 µM),relative viability ([2]; first compound 2 µM),relative viability ([3]; first compound 0.01 µM),relative viability ([3]; first compound 0.03162 µM),relative viability ([3]; first compound 0.3162 µM),relative viability ([3]; first compound 1 µM),relative viability ([4]; first compound 0.02 µM),relative viability ([4]; first compound 0.06325 µM),relative viability ([4]; first compound 0.6325 µM),relative viability ([4]; first compound 2 µM),relative viability ([5]; first compound 0.01 µM),relative viability ([5]; first compound 0.03162 µM),relative viability ([5]; first compound 0.3162 µM),relative viability ([5]; first compound 1 µM)
NCI-H661,0.461,0.444,0.447,0.27,0.527,0.428,0.455,0.233,0.428,0.42,0.354,0.349,,,,,,,,
CAL-12T,0.6,0.638,0.653,0.468,0.986,0.732,0.807,0.424,0.383,0.277,0.543,0.411,1.29,1.24,1.2,1.07,0.617,0.455,0.716,0.664
HARA,0.703,0.724,0.378,0.354,0.979,1.06,0.803,0.353,0.268,0.343,0.27,0.221,1.2,1.13,1.09,1.08,0.0277,0.264,0.179,0.4
NCI-H596,1.1,1.02,0.602,0.367,1.02,0.853,0.643,0.337,,,,,0.736,0.835,0.645,0.206,1.16,1.06,1.05,1.01
LU99A,0.98,1.04,0.574,0.372,0.576,0.468,0.326,0.244,0.41,0.419,0.413,0.35,0.818,0.638,0.574,0.361,0.376,0.169,0.332,0.362
LC-2-ad,0.989,1.13,0.506,0.439,0.848,0.801,0.326,0.36,0.488,0.523,0.51,0.499,0.606,0.415,0.17,0.143,0.815,0.868,0.889,0.782
NCI-H1650,1.02,0.806,0.672,0.51,,,,,0.291,0.334,0.331,0.356,1.21,1.19,0.828,0.31,,,,
NCI-H1915,0.96,1.02,0.916,0.935,1.07,1.06,1.12,1.07,0.594,0.612,0.499,0.505,0.811,0.789,0.797,0.789,0.74,0.573,0.735,0.576
ABC-1,1.08,1.27,1.04,0.631,0.863,0.783,0.651,0.635,0.809,0.669,0.641,0.605,,,,,0.795,0.787,0.85,0.814
HCC-44,0.86,0.977,1.06,0.674,0.607,0.627,0.609,0.303,0.918,0.938,0.974,0.946,0.974,0.848,0.866,0.622,0.961,0.98,1.04,1.02
A549,0.93,0.906,0.595,0.606,0.674,0.606,0.476,0.307,,,,,1.32,1.25,0.919,0.401,,,,
NCI-H522,,,,,,,,,1.04,1.12,1.05,1.09,,,,,0.85,0.763,0.993,0.762
NCI-H1703,0.939,1.33,0.405,0.247,1.19,0.634,0.347,0.137,,,,,1.38,0.805,0.305,0.204,0.14,0.105,0.112,0.112
IA-LM,0.926,0.79,0.678,0.364,0.482,0.7,0.757,0.249,,,,,0.777,0.898,0.766,0.309,,,,
SW 900,,,,,,,,,0.582,,0.532,0.423,,,,,0.531,,0.591,0.728
NCI-H1648,,,,,,,,,0.229,0.269,0.301,0.331,,,,,0.657,0.481,0.797,0.855
SK-LU-1,0.977,0.792,0.665,0.481,1.21,1.13,0.987,0.628,0.431,0.433,0.375,0.353,0.972,1.04,0.624,0.41,,,,
NCI-H358,0.49,0.503,0.311,0.29,0.681,0.685,0.464,0.393,0.16,0.124,0.138,0.141,,,,,0.628,0.423,0.552,0.609

Cell Line,relative viability ([1]; first compound 0.02 µM),relative viability ([1]; first compound 0.06325 µM),relative viability ([1]; first compound 0.6325 µM),relative viability ([1]; first compound 2 µM),relative viability ([2]; first compound 0.02 µM),relative viability ([2]; first compound 0.06325 µM),relative viability ([2]; first compound 0.6325 µM),relative viability ([2]; first compound 2 µM),relative viability ([3]; first compound 0.01 µM),relative viability ([3]; first compound 0.03162 µM),relative viability ([3]; first compound 0.3162 µM),relative viability ([3]; first compound 1 µM),relative viability ([4]; first compound 0.02 µM),relative viability ([4]; first compound 0.06325 µM),relative viability ([4]; first compound 0.6325 µM),relative viability ([4]; first compound 2 µM),relative viability ([5]; first compound 0.01 µM),relative viability ([5]; first compound 0.03162 µM),relative viability ([5]; first compound 0.3162 µM),relative viability ([5]; first compound 1 µM)
NCI-H1563,1,0.948,0.696,0.564,1.16,1.1,0.835,0.6,,,,,,,,,,,,
LCLC-103H,,,,,1.14,1.14,0.814,0.716,0.496,0.499,0.461,0.462,,,,,0.751,0.818,0.765,0.712
NCI-H2342,,,,,,,,,0.58,0.51,0.469,0.473,,,,,0.527,0.478,0.423,0.376
SW 1573,1.12,1.28,0.89,0.55,0.844,0.709,0.618,0.41,0.571,0.335,0.294,0.298,0.804,0.951,0.742,0.348,,,,
ChaGo-K-1,,,,,,,,,0.961,0.98,0.937,0.932,1.19,1.32,0.987,0.826,0.875,0.796,0.858,0.93
NCI-H441,,,,,0.58,0.581,0.414,0.325,0.226,0.206,0.207,0.167,0.856,0.64,0.505,0.413,1.27,0.941,1.25,0.869
NCI-H2170,0.285,0.306,0.226,0.245,,,,,0.4,0.391,0.354,0.343,0.619,0.487,0.452,0.231,0.874,0.765,0.812,0.837
NCI-H2009,1.06,0.932,0.858,0.844,1.21,1.18,1.16,0.799,0.139,0.25,0.179,0.177,1.16,1.19,1.15,0.958,,,,
Calu-6,1.15,1.19,0.898,0.911,0.981,1.02,0.868,0.829,,,,,0.911,0.855,0.656,0.569,,,,
SK-MES-1,0.468,0.41,0.389,0.27,1.02,1.01,0.836,0.456,0.327,0.296,0.289,0.256,1.21,1.19,0.89,0.431,,,,
NCI-H1299,1.02,1.01,1,1.01,1.03,1.01,0.991,0.864,,,,,1.09,1.05,1.1,1.13,,,,
NCI-H2228,1.18,1.12,0.586,0.339,0.533,0.637,0.31,0.184,0.586,0.848,0.487,0.725,0.948,0.563,0.59,0.181,,,,
EBC-1,0.237,0.208,0.237,0.204,1.02,0.966,0.768,0.195,,,,,0.38,0.412,0.164,0.126,,,,
COR-L23,1.2,1.08,0.993,0.77,0.914,0.886,0.878,0.387,0.277,0.312,0.268,0.291,1.1,1.15,0.949,0.561,,,,
NCI-H520,0.834,0.864,0.365,0.164,0.975,1.09,0.56,0.208,0.215,0.218,0.153,0.149,1.17,1.24,0.599,0.134,,,,
NCI-H650,1.27,0.997,0.798,0.689,0.979,1.03,0.809,0.633,0.292,0.328,0.311,0.309,,,,,1,0.706,1.13,1
COR-L 105,0.394,0.401,0.338,0.325,0.882,0.933,0.819,0.486,0.428,0.436,0.441,0.408,0.739,0.77,0.679,0.521,,,,
NCI-H2023,0.78,0.611,0.349,0.243,0.508,0.414,0.208,0.264,0.39,0.347,0.297,0.208,0.959,0.965,0.734,0.313,,,,

# From the supplement of paper PMC10307832
